Source: patent US20240358692A1, “TREATMENT OF SCLERODERMA” (Aisa Pharma, Inc., priority 2023, published 2024)

System: participants with SSc-RP
Experiment: Average severity of weekly RP attacks (VAS 0-10)
Type: in vivo, human
Conditions: for Average Severity (0-10) of weekly RP attacks, Median / Average Severity (0-10) of weekly RP attacks, Mean / Average severity of weekly RP attacks, Percent Change from Baseline, Mean / Average severity of weekly RP attacks, Change from Baseline, Mean / Average severity of weekly RP attacks, Percent Change from Baseline, Median / Average severity of weekly RP attacks, Change from Baseline, Median: all attacks
Description: The absolute change in average severity of weekly RP attacks (VAS 0-10 cm scale) from baseline to the end of each Dosing Period was and will be a secondary outcome variable. The sponsor-developed participant-informed diary will be used to record data. Average severity of weekly RP attacks is defined as the total severity scores of RP attacks divided by total number of RP attacks within the last 7 days of each dosing period. Total severity scores of RP attacks during the last 7 days of screening period divided by the total number of RP attacks will be used as baseline for the analysis of all periods. The variable will be calculated similar to frequency data as before.

[1] = Pooled Cilnidipine 10 mg and Cilnidipine 10 mg + Tadalafil 5 mg, Excluding Outliers, 1st Baseline RCS subgroup, ITT Part A, last 7 days of dosing period
[2] = Pooled Cilnidipine 10 mg and Cilnidipine 10 mg + Tadalafil 5 mg, Excluding Outliers, 2nd Baseline RCS subgroup, ITT Part A, last 7 days of dosing period
[3] = Pooled Cilnidipine 10 mg and Cilnidipine 10 mg + Tadalafil 5 mg, ITT Part A, last 7 days of dosing period
[4] = Pooled Cilnidipine 10 mg and Cilnidipine 10 mg + Tadalafil 5 mg, Excluding Outliers, by Baseline RCS: second subgroup of Table C-8, ITT Part A
[5] = Pooled Cilnidipine 10 mg and Cilnidipine 10 mg + Tadalafil 5 mg, by Baseline RCS: second subgroup of Table C-7, ITT Part A
[6] = Pooled Cilnidipine 20 mg and Cilnidipine 20 mg + Tadalafil 5 mg, 1st Baseline RCS subgroup, ITT Part A, last 7 days of dosing period
[7] = Pooled Cilnidipine 20 mg and Cilnidipine 20 mg + Tadalafil 5 mg, 2nd Baseline RCS subgroup, ITT Part A, last 7 days of dosing period
[8] = Pooled Cilnidipine 20 mg and Cilnidipine 20 mg + Tadalafil 5 mg, Excluding Outliers, 1st Baseline RCS subgroup, ITT Part A, last 7 days of dosing period
[9] = Pooled Cilnidipine 20 mg and Cilnidipine 20 mg + Tadalafil 5 mg, Excluding Outliers, 2nd Baseline RCS subgroup, ITT Part A, last 7 days of dosing period
[10] = Pooled Cilnidipine 20 mg and Cilnidipine 20 mg + Tadalafil 5 mg, ITT Part A, last 7 days of dosing period
[11] = Pooled Cilnidipine 20 mg and Cilnidipine 20 mg + Tadalafil 5 mg, Excluding Outliers, by Baseline RCS: first subgroup of Table C-8, ITT Part A
[12] = Pooled Cilnidipine 20 mg and Cilnidipine 20 mg + Tadalafil 5 mg, by Baseline RCS: first subgroup of Table C-7, ITT Part A
[13] = Pooled Cilnidipine, 1st Baseline RCS subgroup, ITT Part A, last 7 days of dosing period
[14] = Pooled Cilnidipine, Excluding Outliers, 1st Baseline RCS subgroup, ITT Part A, last 7 days of dosing period
[15] = Pooled Cilnidipine, ITT Part A, last 7 days of dosing period
[16] = Pooled Cilnidipine, Excluding Outliers, ITT Part A
[17] = Pooled Cilnidipine, Excluding Outliers, by Baseline RCS: first subgroup of Table C-8, ITT Part A
[18] = Pooled Cilnidipine, by Baseline RCS: first subgroup of Table C-7, ITT Part A
[19] = Pooled Cilnidipine, excluding outliers, ITT Part A
[20] = Pooled Cilnidipine, excluding outliers, severity 0-10, ITT Part A
[21] = Pooled Cilnidipine, severity 0-10, ITT Part A

**Q.** Which results are given for `COCCOC(=O)C1=C(C)NC(C)=C(C(=O)OC/C=C/c2ccccc2)C1c1cccc([N+](=O)[O-])c1` (centres unmarked) [Cilnidipine]?
**A.** Average Severity of Weekly Symptomatic RP Attacks, Change from Baseline, Median [1]: −1.22; Average Severity of Weekly Symptomatic RP Attacks, Mean [1]: 3.34; Average Severity of Weekly Symptomatic RP Attacks, Median [1]: 3.34; Average Severity of Weekly Symptomatic RP Attacks, Percent Change from Baseline, Mean [1]: −20.18%; Average Severity of Weekly Symptomatic RP Attacks, Percent Change from Baseline, Median [1]: −20.18%; Average Severity of Weekly Symptomatic RP Attacks, Change from Baseline, Mean [2]: −1.13; Average Severity of Weekly Symptomatic RP Attacks, Change from Baseline, Median [2]: −1.13; Average Severity of Weekly Symptomatic RP Attacks, Mean [2]: 5.23; Average Severity of Weekly Symptomatic RP Attacks, Median [2]: 5.23; Average Severity of Weekly Symptomatic RP Attacks, Percent Change from Baseline, Mean [2]: −17.81%; Average Severity of Weekly Symptomatic RP Attacks, Percent Change from Baseline, Median [2]: −17.81%; Average Severity of Weekly RP Attacks (All Attacks), Change from Baseline, Mean [3]: −1.34; Average Severity of Weekly RP Attacks (All Attacks), Change from Baseline, Median [3]: −1.32; Average Severity of Weekly RP Attacks (All Attacks), Mean [3]: 3.62; Average Severity of Weekly RP Attacks (All Attacks), Median [3]: 3.05; Average Severity of Weekly RP Attacks (All Attacks), Percent Change from Baseline, Mean [3]: −23.02%; Average Severity of Weekly RP Attacks (All Attacks), Percent Change from Baseline, Median [3]: −21.20%; Average Severity (0-10) of weekly RP attacks, Median (Pooled Cilnidipine 10 mg and Cilnidipine 10 mg + Tadalafil 5 mg, Excluding Outliers, ITT Part A): 3.05; Average Severity (0-10) of weekly RP attacks, Mean [4]: 4.90; Average Severity (0-10) of weekly RP attacks, Median [4]: 4.90; Average severity of weekly RP attacks, Percent Change from Baseline, Mean [4]: −21.20%; Average severity of weekly RP attacks, Change from Baseline, Mean (Pooled Cilnidipine 10 mg and Cilnidipine 10 mg + Tadalafil 5 mg, by Baseline RCS: first subgroup of Table C-7, ITT Part A): −1.35; Average Severity (0-10) of weekly RP attacks, Mean [5]: 4.90; Average Severity (0-10) of weekly RP attacks, Median [5]: 4.90; Average severity of weekly RP attacks, Percent Change from Baseline, Mean [5]: −21.20%; Average severity of weekly RP attacks, Percent Change from Baseline, Median [5]: −21.20%; Average Severity of Weekly Symptomatic RP Attacks, Change from Baseline, Mean [6]: −1.06; Average Severity of Weekly Symptomatic RP Attacks, Change from Baseline, Median [6]: −0.33; Average Severity of Weekly Symptomatic RP Attacks, Mean [6]: 2.85; Average Severity of Weekly Symptomatic RP Attacks, Median [6]: 2.40; Average Severity of Weekly Symptomatic RP Attacks, Percent Change from Baseline, Mean [6]: −24.28%; Average Severity of Weekly Symptomatic RP Attacks, Percent Change from Baseline, Median [6]: −12.02%; Average Severity of Weekly Symptomatic RP Attacks, Change from Baseline, Mean [7]: −1.79; Average Severity of Weekly Symptomatic RP Attacks, Change from Baseline, Median [7]: −1.79; Average Severity of Weekly Symptomatic RP Attacks, Mean [7]: 5.06; Average Severity of Weekly Symptomatic RP Attacks, Median [7]: 5.06; Average Severity of Weekly Symptomatic RP Attacks, Percent Change from Baseline, Mean [7]: −26.14%; Average Severity of Weekly Symptomatic RP Attacks, Percent Change from Baseline, Median [7]: −26.14%; Average Severity of Weekly Symptomatic RP Attacks, Change from Baseline, Mean [8]: −1.06; Average Severity of Weekly Symptomatic RP Attacks, Change from Baseline, Median [8]: −0.33; Average Severity of Weekly Symptomatic RP Attacks, Mean [8]: 2.85; Average Severity of Weekly Symptomatic RP Attacks, Median [8]: 2.40; Average Severity of Weekly Symptomatic RP Attacks, Percent Change from Baseline, Mean [8]: −24.28%; Average Severity of Weekly Symptomatic RP Attacks, Percent Change from Baseline, Median [8]: −12.02%; Average Severity of Weekly Symptomatic RP Attacks, Change from Baseline, Mean [9]: −1.79; Average Severity of Weekly Symptomatic RP Attacks, Change from Baseline, Median [9]: −1.79; Average Severity of Weekly Symptomatic RP Attacks, Mean [9]: 5.06; Average Severity of Weekly Symptomatic RP Attacks, Median [9]: 5.06; Average Severity of Weekly Symptomatic RP Attacks, Percent Change from Baseline, Mean [9]: −26.14%; Average Severity of Weekly Symptomatic RP Attacks, Percent Change from Baseline, Median [9]: −26.14%; Average Severity of Weekly RP Attacks (All Attacks), Change from Baseline, Mean [10]: −1.02; Average Severity of Weekly RP Attacks (All Attacks), Change from Baseline, Median [10]: −0.96; Average Severity of Weekly RP Attacks (All Attacks), Mean [10]: 3.35; Average Severity of Weekly RP Attacks (All Attacks), Median [10]: 3.06; Average Severity of Weekly RP Attacks (All Attacks), Percent Change from Baseline, Mean [10]: −21.83%; Average Severity of Weekly RP Attacks (All Attacks), Percent Change from Baseline, Median [10]: −16.40%; Average severity of weekly RP attacks, Change from Baseline, Median (Pooled Cilnidipine 20 mg and Cilnidipine 20 mg + Tadalafil 5 mg, Excluding Outliers, ITT Part A): −0.96; Average Severity (0-10) of weekly RP attacks, Median [11]: 2.40; Average severity of weekly RP attacks, Change from Baseline, Mean [11]: −0.84; Average severity of weekly RP attacks, Change from Baseline, Median [11]: −0.39; Average Severity (0-10) of weekly RP attacks, Median [12]: 2.40; Average severity of weekly RP attacks, Change from Baseline, Mean [12]: −0.84; Average severity of weekly RP attacks, Change from Baseline, Median [12]: −0.39; Severity (change) (Pooled Cilnidipine (n = 7)): −16%; Average Severity of Weekly Symptomatic RP Attacks, Change from Baseline, Mean [13]: −0.87; Average Severity of Weekly Symptomatic RP Attacks, Change from Baseline, Median [13]: −0.33; Average Severity of Weekly Symptomatic RP Attacks, Mean [13]: 2.79; Average Severity of Weekly Symptomatic RP Attacks, Median [13]: 2.40; Average Severity of Weekly Symptomatic RP Attacks, Percent Change from Baseline, Mean [13]: −19.22%; Average Severity of Weekly Symptomatic RP Attacks, Percent Change from Baseline, Median [13]: −12.02%; Average Severity of Weekly Symptomatic RP Attacks, Change from Baseline, Mean [14]: −0.87; Average Severity of Weekly Symptomatic RP Attacks, Change from Baseline, Median [14]: −0.33; Average Severity of Weekly Symptomatic RP Attacks, Mean [14]: 2.79; Average Severity of Weekly Symptomatic RP Attacks, Median [14]: 2.40; Average Severity of Weekly Symptomatic RP Attacks, Percent Change from Baseline, Mean [14]: −19.22%; Average Severity of Weekly Symptomatic RP Attacks, Percent Change from Baseline, Median [14]: −12.02%; Average Severity of Weekly Symptomatic RP Attacks, Percent Change from Baseline, Mean (Pooled Cilnidipine, ITT Part A): −19.22%; Average Severity of Weekly Symptomatic RP Attacks, Percent Change from Baseline, Median (Pooled Cilnidipine, ITT Part A): −12.02%; Average Severity of Weekly RP Attacks (All Attacks), Change from Baseline, Mean [15]: −0.71; Average Severity of Weekly RP Attacks (All Attacks), Change from Baseline, Median [15]: −0.20; Average Severity of Weekly RP Attacks (All Attacks), Mean [15]: 2.55; Average Severity of Weekly RP Attacks (All Attacks), Median [15]: 2.40; Average Severity of Weekly RP Attacks (All Attacks), Percent Change from Baseline, Mean [15]: −17.99%; Average Severity of Weekly RP Attacks (All Attacks), Percent Change from Baseline, Median [15]: −7.69%; Average Severity (0-10) of weekly RP attacks, Median [16]: 2.40; Average severity of weekly RP attacks, Change from Baseline, Mean [16]: −0.71; Average severity of weekly RP attacks, Change from Baseline, Median [16]: −0.20; Average Severity (0-10) of weekly RP attacks, Mean [17]: 2.55; Average Severity (0-10) of weekly RP attacks, Median [17]: 2.40; Average severity of weekly RP attacks, Change from Baseline, Mean [17]: −0.71; Average severity of weekly RP attacks, Change from Baseline, Median [17]: −0.20; Average severity of weekly RP attacks, Percent Change from Baseline, Mean [17]: −17.99%; Average severity of weekly RP attacks, Percent Change from Baseline, Median [17]: −7.69%; Average Severity (0-10) of weekly RP attacks, Mean [18]: 2.55; Average Severity (0-10) of weekly RP attacks, Median [18]: 2.40; Average severity of weekly RP attacks, Change from Baseline, Mean [18]: −0.71; Average severity of weekly RP attacks, Change from Baseline, Median [18]: −0.20; Average severity of weekly RP attacks, Percent Change from Baseline, Mean [18]: −17.99%; Average severity of weekly RP attacks, Percent Change from Baseline, Median [18]: −7.69%; Average Severity of Weekly Symptomatic RP Attacks, Percent Change from Baseline, Mean [19]: −19.22%; Average Severity of Weekly Symptomatic RP Attacks, Percent Change from Baseline, Median [19]: −12.02%; Average Severity of Weekly Symptomatic RP Attacks, Change from Baseline, Mean [20]: −0.87; Average Severity of Weekly Symptomatic RP Attacks, Change from Baseline, Median [20]: −0.33; Average Severity of Weekly Symptomatic RP Attacks, Mean [20]: 2.79; Average Severity of Weekly Symptomatic RP Attacks, Median [20]: 2.40; Average Severity of Weekly Symptomatic RP Attacks, Change from Baseline, Mean [21]: −0.87; Average Severity of Weekly Symptomatic RP Attacks, Change from Baseline, Median [21]: −0.33; Average Severity of Weekly Symptomatic RP Attacks, Mean [21]: 2.79; Average Severity of Weekly Symptomatic RP Attacks, Median [21]: 2.40; severity of attacks, dose response (cilnidipine monotherapy 10 mg vs 20 mg (n=3)): 20 mg reducing severity more than 10 mg
